Experimental data published in patent US20240398942A1, “USE OF ANTI-CD40 ANTIBODY” (CHIA TAI TIANQING PHARMACEUTICAL GROUP CO., LTD., priority 2021, published 2024).
Structures can show the parent of a compound that is named as a salt.

What was measured:
[1] = tested on: human B-cell lymphoma Ramos cells; experiment: Efficacy of anti-CD40 antibody and anlotinib, Ramos subcutaneous xenograft mouse model; assay type: in vivo
Procedure: Human B-cell lymphoma Ramos cells (purchased from the Cell Bank of the Chinese Academy of Sciences) were cultured in an RPMI1640 medium containing 10% of fetal bovine serum and penicillin-streptomycin. The cells were inoculated in a 37° C./5% CO2 incubator until the logarithmic growth phase and collected for grafting.
The mice used in this study were NOD-Scid mice (purchased from Shanghai Lingchang Biotechnology Co., Ltd.) aged about 6 weeks and bred in specific pathogen-free conditions in 12/12-hour light/dark cycles. The health status of the animals was monitored daily.
Each mouse was inoculated subcutaneously with 1×10^7 Ramos cells. When the tumor grew to 80-100 mm^3, the mice were divided into groups of 10 according to the tumor volume. The administration regimen is shown in Table 10, with the first dosing day designated as DO. Antibody huC1H1-V2 and IgG2 (Biointron, Cat. No. B107803) were both formulated to desired concentrations with normal saline, and anlotinib dihydrochloride was formulated at desired concentrations with distilled water. At the end of study (D14), the animals were sacrificed by CO2 anesthesia and dissected to give the tumors. The tumors were photographed.
The tumor diameters were measured twice weekly with a vernier caliper. Tumor volume (V)=½×a×b^2, wherein a and b denote length and width, respectively; T/C (%)=(T−T0)/(C−C0)×100, wherein T and C refer to the tumor volumes of the treatment group and the IgG2 control group on day 14, respectively, and TO and C0 refer to the tumor volumes of the treatment group and IgG2 control group on day 0, respectively; the tumor growth inhibition % (TGI %)=100−T/C (%). When the tumor regressed, the tumor growth inhibition % (TGI %)=100−(T−T0)/T0×100. If the tumor volume was smaller than the initial volume, i.e., T<T0 or C<C0, the outcome was defined as partial regression (PR); if the tumors completely disappeared, i.e., the outcome was defined as complete regression (CR).

[2] = tested on: Cynomolgus monkey CD40-his; experiment: Biacore surface plasmon resonance affinity and binding kinetics; conditions: for Kd: dissociation rate
Excerpt: (§1) The affinity and binding kinetics of the anti-CD40 antibody in the present application were characterized by a Biacore T200 system (GE Healthcare, Pittsburgh, PA, USA).
(§2) Briefly, a goat anti-human IgG (GE Healthcare, Cat. No. BR100839, human antibody capture kit) was covalently linked to a CM5 chip (GE Healthcare, Cat. No. BR100530, carboxymethylated dextran-coated chip) via the primary amine group using a standard amine coupling kit supplied by Biacore (GE Healthcare, Pittsburgh, PA, USA). Unreacted portions on the biosensor surface were blocked with ethanolamine. Then, the anti-CD40 antibody of the present application and two benchmark antibodies (BM1 (dacetuzumab, Genentech Inc., also referred to CD40-BM1, prepared in-house; the heavy and light chain amino acid sequences are set forth in SEQ ID NOs: 40 and 41, respectively) and BM2 (selicrelumab, Abgenix Inc., also referred to CD40-BM2, prepared in-house; the heavy and light chain amino acid sequences are set forth in SEQ ID NOS: 42 and 43, respectively)) at a concentration of 66.67 nM were directed through the chip at a flow rate of 10 μL/min. Then, serially diluted recombinant human CD40-his (Acro biosystems, Cat. No. CD0-H5228, serially 2-fold diluted from 80 nM in HBS-EP^+ buffer (supplied by Biacore)) or cynomolgus monkey CD40-his protein (Acro biosystems, Cat. No. CD0-C52H6, serially 2-fold diluted from 80 nM in HBS-EP^+ buffer (supplied by Biacore)) was directed through the chip at a flow rate of 30 μL/min. The antigen-antibody binding kinetics was tracked for 2 min and the dissociation kinetics was tracked for 10 min. The association and dissociation curves were fitted to a 1:1 Langmuir binding model using BIAcore evaluation software. KD, Ka, and Kd values were determined.

[3] = target: T1, Human CD40-his (Homo sapiens, UniProt P25942); experiment: as above; conditions: for Kd: dissociation rate
T1 construct: His; purchased Acro biosystems CD0-H5228
Excerpt: as §1, §2

[4] = target: T1, Human CD40-his; experiment: Octet kinetics of humanized C1H1 antibodies; assay type: binding; conditions: Table 3, Octet
Procedure: After six days of culture in a shake flask, the cell supernatant containing the humanized antibodies huC1H1-V1 to huC1H1-V4 was harvested and the binding affinity of the antibodies to human CD40 was determined on an Octet system (Fortebio, Octet RED 96) according to the following procedures. Briefly, an anti-human IgG Fc capture (AHC) biosensor (from ForteBio) was pre-soaked in a 10 mM glycine solution (pH 1.5) for 3 s, and then soaked in a running buffer (PBST containing 0.5% w/v of BSA) for 3 s. The pre-soaking and soaking procedures were repeated 3 times. Then, the sensor was soaked in the cell supernatant containing the humanized anti-CD40 antibody, chimeric antibody C1H1 dissolved in HBS-EP^+ buffer at a concentration of 5 μg/mL, or the benchmark dissolved in HBS-EP^+ buffer at a concentration of 5 μg/mL for 120 s, and then soaked in the running buffer for 5 min. The new baseline was run in the running buffer for 180 s. The sensor was then soaked for 120 s in human CD40-his protein (Acro biosystems, Cat. No. CD0-H5228) 2-fold serially diluted from 40 nM in the running buffer and for 10 min in the running buffer […]. Finally, the sensor was pre-soaked in a 10 mM glycine solution (pH 1.5) for 3 s, and then soaked in the running buffer for 3 s. The pre-soaking and soaking procedures were repeated 3 times. […]

[5] = Table 2, Biacore, association rate
[6] = Table 5, Biacore, purified antibodies

T1 sequence (P25942 21-277): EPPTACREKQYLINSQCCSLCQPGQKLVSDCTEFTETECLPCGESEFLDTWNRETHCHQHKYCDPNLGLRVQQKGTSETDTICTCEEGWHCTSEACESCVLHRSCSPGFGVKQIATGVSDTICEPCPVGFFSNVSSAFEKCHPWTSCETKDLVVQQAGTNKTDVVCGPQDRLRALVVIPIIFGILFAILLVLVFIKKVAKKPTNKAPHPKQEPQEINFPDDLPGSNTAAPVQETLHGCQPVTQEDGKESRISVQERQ

| Compound | Mean tumor volume (mean ± SD) D 0 ([1]; baseline, huC1H1-V2 0.5 mg/kg i.p. once every 2 days × 8, anlotinib dihydrochloride 1 mg/kg intragastric daily × 15) | Mean tumor volume (mean ± SD) D 14 ([1]; huC1H1-V2 0.5 mg/kg i.p. once every 2 days × 8, anlotinib dihydrochloride 1 mg/kg intragastric daily × 15) | TGI D 14 (tumor growth inhibition rate) ([1]; huC1H1-V2 0.5 mg/kg i.p., anlotinib dihydrochloride 1 mg/kg intragastric) | Tolerability (symptoms such as weight loss) ([1]; huC1H1-V2 0.5 mg/kg i.p., anlotinib dihydrochloride 1 mg/kg intragastric, tumor-bearing mice) | T/C D 14 ([1]; vs IgG2 group, huC1H1-V2 0.5 mg/kg i.p., anlotinib dihydrochloride 1 mg/kg intragastric) | Ka [2, 5] | Kd ([2]; Table 2, Biacore) | Kd ([2]; Table 5, Biacore) | Ka [2, 6] | Ka [3, 5] | Kd ([3]; Table 2, Biacore) | Kd ([3]; Table 5, Biacore) | Ka [3, 6] | Kd ([4]; dissociation rate) | Ka ([4]; humanized antibodies in cell supernatant, chimeric and benchmark 5 μg/mL) |
| --- | --- | --- | --- | --- | --- | --- | --- | --- | --- | --- | --- | --- | --- | --- | --- |
| COc1cc2c(Oc3ccc4[nH]c(C)cc4c3F)ccnc2cc1OCC1(N)CC1 [anlotinib dihydrochloride, 1-[[[4-(4-fluoro-2-methyl-1H-indol-5-yl)oxy-6-methoxyquinolin-7-yl]oxy]methyl]cyclopropylamine, reference compound] | 85.3 ± 3.8 mm^3 | 1602.8 ± 137.1 mm^3 | 56% | well tolerated | 44% | – | – | – | – | – | – | – | – | – | – |
| BM1: benchmark antibody dacetuzumab, Genentech Inc., prepared in-house; heavy and light chain SEQ ID NOs: 40 and 41 [reference compound] | – | – | – | – | – | 623000 M⁻¹ s⁻¹ | 0.006164 s⁻¹ | 0.007397 s⁻¹ | 764000 M⁻¹ s⁻¹ | 739000 M⁻¹ s⁻¹ | 0.006556 s⁻¹ | 0.007562 s⁻¹ | 803000 M⁻¹ s⁻¹ | – | – |
| BM2: benchmark antibody selicrelumab, Abgenix Inc., prepared in-house; heavy and light chain SEQ ID NOs: 42 and 43 [reference compound] | – | – | – | – | – | – | – | 0.001508 s⁻¹ | 173000 M⁻¹ s⁻¹ | – | – | 0.001616 s⁻¹ | 206000 M⁻¹ s⁻¹ | 0.000979 s⁻¹ | 874000 M⁻¹ s⁻¹ |
